Values of other authors in US20080057111A1 (priority 2006, published 2008).

Tested on: not given
Details: not given

Structure (SMILES)	anti-endotoxin activity in vivo
O=C(O)c1ccccc1O [salicylic acid]	anti-endotoxin activity
COc1cc(C(=O)O)cc(OC)c1O [syringic acid]	anti-endotoxin activity
O=C(O)c1ccccc1 [benzoic acid]	anti-endotoxin activity
Nc1ccccc1C(=O)O [σ-aminobenzoic acid]	anti-endotoxin activity

Tested on: severe acute respiratory syndrome (SARS) virus
Details: recent report

Structure (SMILES)	effect on SARS virus
CC[C@H](CC[C@@H](C)[C@H]1CC[C@H]2[C@@H]3CC=C4C[C@@H](O)CC[C@]4(C)[C@H]3CC[C@]12C)C(C)C [beta-sitosterol]	inhibitory effect
OC[C@H]1O[C@@H](Oc2c[nH]c3ccccc23)[C@H](O)[C@@H](O)[C@@H]1O [indican]	inhibitory effect
COc1ccc([C@@H]2CC(=O)c3c(O)cc(O)cc3O2)cc1O [hespertin]	inhibitory effect
O=c1c(-c2ccc(O)cc2)coc2cc(O)ccc12 [daidzein]	inhibitory effect
C=CCC(=NOS(=O)(=O)O)S[C@@H]1O[C@H](CO)[C@@H](O)[C@H](O)[C@H]1O (stereo in doubt) [sinigrin]	inhibitory effect
O=C1/C(=C2\Nc3ccccc3C2=O)Nc2ccccc21 [indigo]	inhibitory effect
